Reference: patent publication US7411083B2, “Substituted acetic acid derivatives” (Wyeth, priority 2003, dated 2008)

What was measured:
[1] = molecular target: T1, recombinant human plasminogen activator inhibitor-1 (PAI-1) (Homo sapiens, UniProt P05121); assay: Screening for PAI-1 inhibition (residual tPA activity, Spectrozyme-tPA chromogenic substrate); type: biochemical; details: test compound at 100 Um; pH 6.6 buffer, 140 nM PAI-1, 70 nM tPA
T1 construct: purchased Molecular Innovations, Royal Oak, Mich
T1 sequence (P05121 24-402): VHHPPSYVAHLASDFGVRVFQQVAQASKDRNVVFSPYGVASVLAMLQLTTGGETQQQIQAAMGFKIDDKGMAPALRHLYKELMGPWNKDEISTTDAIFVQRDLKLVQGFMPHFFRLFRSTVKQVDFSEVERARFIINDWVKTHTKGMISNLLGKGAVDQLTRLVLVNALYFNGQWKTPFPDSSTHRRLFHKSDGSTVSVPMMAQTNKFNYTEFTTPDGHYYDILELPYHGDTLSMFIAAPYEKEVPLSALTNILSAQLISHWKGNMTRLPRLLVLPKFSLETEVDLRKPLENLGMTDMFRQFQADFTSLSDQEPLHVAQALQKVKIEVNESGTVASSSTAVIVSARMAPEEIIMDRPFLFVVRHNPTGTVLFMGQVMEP
In short: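 PAI-1 at 140 nM, pH 6.6 buffer, preincubated 1 h at room temperature with compound (1-100 μM final, ≤0.2% DMSO), then 70 nM tPA added for 30 min. Residual tPA activity read by Spectrozyme-tPA absorbance at 405 nm at 0 and 60 min. Inhibition taken as residual tPA activity.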

human PAI-1 = human PAI-1 (Homo sapiens, UniProt P05121); assay: Assay for determining the IC50 of inhibition of PAI-1 (active PAI-1 bound to tPA-coated plate, 33B8 antibody detection); type: biochemical; details: values carry suffix (K), not explained; test compounds 1-50 μM, pH 7.5
Chain of human PAI-1 (P05121 24-402): as above
Description: Assay for determining the IC50 of inhibition of PAI-1. This assay is based upon the non-SDS dissociable interaction between Tpa and active PAI-1. Assay plates are initially coated with human Tpa (10 μg/ml). Test compounds are dissolved in DMSO at 10 Mm, then diluted with physiologic buffer (Ph 7.5) to a final concentration of 1-50 μM. The test compounds are incubated with human PAI-1 (50 ng/ml) for 15 minutes at room temperature. The Tpa-coated plate is washed with a solution of 0.05% Tween 20 and 0.1% BSA, then the plate is blocked with a solution of 3% BSA. An aliquot of the test compound/PAI-1 solution is then added to the Tpa-coated plate, incubated at room temperature for 1 hour, and washed. Active PAI-1 bound to the plate is assessed by adding an aliquot of a 1:1000 dilution of the 33B8 monoclonal antibody against human PAI-1, and incubating the plate at room temperature for 1 hour (Molecular Innovations, Royal Oak, Mich.). The plate is again washed, and a solution of goat anti-mouse IgG-alkaline phosphatase conjugate is added at a 1:50,000 dilution in goat serum. The plate is incubated 30 minutes at room temperature, washed, and a solution of alkaline phosphatase substrate is added. The plate is incubated 45 minutes at room temperature, and color development is determined at OD405 nm. The quantitation of active PAI-1 bound to Tpa at varying concentrations of the test compound is used to determine the IC50. Results are analyzed using a logarithmic best-fit equation. The assay sensitivity is 5 ng/ml of human PAI-1 as determined from a standard curve ranging from 0-100 ng/ml.

inhibition at 100 µM [1] [%] | IC50 (human PAI-1) [µM] | SMILES
82 | 1.85 | O=C(O)CO/N=C/c1cn(Cc2ccccc2)c2ccc(OCc3ccc(C(F)(F)F)cc3)cc12 [Compound 3, ({[(1E)-(1-benzyl-5-{[4-(trifluoromethyl)benzyl]oxy}-1H-indol-3-yl)methylidene]amino}oxy)acetic acid]
85 | 16.9 | O=C(O)CO/N=C/c1cn(Cc2ccccc2)c2ccc(OCc3ccc(Br)cc3)cc12 [Compound 9, {[((1E)-{1-benzyl-5-[(4-bromobenzyl)oxy]-1H-indol-3-yl}methylidene)amino]oxy}acetic acid]
82 | 9.36 | Cn1cc(/C=N/OCC(=O)O)c2cc(OCc3ccc(C(F)(F)F)cc3)ccc21 [Compound 32, ({[(1E)-(1-methyl-5-{[4-(trifluoromethyl)benzyl]oxy}-1H-indol-3-yl)methylidene]amino}oxy)acetic acid]
53 | – | CC(C)Cc1ccc(OCC#Cc2ccc(/C=N/OCC(=O)O)cc2)cc1 [Compound 167, {[((1E)-{4-[3-(4-isobutylphenoxy)prop-1-ynyl]phenyl}methylidene)amino]oxy}acetic acid]
52 | – | CC(C)(C)c1ccc(OCC#Cc2cccc(/C=N/OCC(=O)O)c2)cc1 [Compound 168, {[((1E)-{3-[3-(4-tert-butylphenoxy)prop-1-ynyl]phenyl}methylidene)amino]oxy}acetic acid]
60 | – | O=C(O)CO/N=C/c1cccc(C#CCOc2ccc(Br)cc2)c1 [Compound 169, {[((1E)-{3-[3-(4-bromophenoxy)prop-1-ynyl]phenyl}methylidene)amino]oxy}acetic acid]
73 | – | O=C(O)CO/N=C/c1cccc(C#CCOc2cc(C(F)(F)F)cc(C(F)(F)F)c2)c1 [Compound 170, ({[(1E)-(3-{3-[3,5-bis(trifluoromethyl)phenoxy]prop-1-ynyl}phenyl)methylidene]amino}oxy)acetic acid]
69 | – | O=C(O)CO/N=C/c1cccc(C#CCOc2cc(Cl)cc(Cl)c2)c1 [Compound 171, {[((1E)-{3-[3-(3,5-dichlorophenoxy)prop-1-ynyl]phenyl}methylidene)amino]oxy}acetic acid]
44 | – | O=C(O)CO/N=C/c1cccc(C#CCOc2cccc(Cl)c2)c1 [Compound 172, {[((1E)-{3-[3-(3-chlorophenoxy)prop-1-ynyl]phenyl}methylidene)amino]oxy}acetic acid]
56 | – | CC(C)Cc1ccc(OCC#Cc2cccc(/C=N/OCC(=O)O)c2)cc1 [Compound 173, {[((1E)-{3-[3-(4-isobutylphenoxy)prop-1-ynyl]phenyl}methylidene)amino]oxy}acetic acid]
